Laboratory results reported in paper PMC12022909, “A Multicomponent Reaction-Based Platform Opens New Avenues in Aryl Hydrocarbon Receptor Modulation” (ACS Central Science, 2025).

Molecular target: T1, AhR-GFP (Homo sapiens, UniProt P35869)
T1 construct: host or cells: MCF7, lentiviral transduction
Experiment: MCF7 AhR-GFP.IRES.mCherry reporter, flow cytometry quantification of AhR protein levels
Assay type: cell-based
Details: 5 μM, 5 h
Protocol: Figure 6 Bifunctional AhR probes and AhR reporter in MCF7 cells. (a) Synthetic access to the conjugatable AhR ligand 5m. (b) Structure, yield, and EC50 value of the model amide 12a and MD simulation of AhR with 12a (last snapshot). (c) PROTAC-like compound 12b and dual probes 12c–d. Reaction conditions: (a) 5m (1 equiv), amine (1 equiv), HATU, DIPEA, DMF, rt, 24 h, Ar atm; (b) 5m (2 equiv), diamine (1 equiv), HATU, DIPEA, DMF, rt, 24 h, Ar atm. (d) General setup of the reporter system for quantifying AhR protein levels. (e) The population of MCF7 reporter cells (MCF7 AhR-GFP.IRES.mCherry) gated by flow cytometry and used for quantification of AhR. […] Values represent the ratio of the geometric mean of GFP and mCherry values in the gated population. (g) Change in protein levels relative to vehicle treatment (DMSO) in MCF7 cells treated with 12b at 10 μM for 5 h quantified by TMT labeling and LC/MS analysis versus p-Value. TEXT PRINTED IN THE PICTURE: (b) 12a: EC50 = 0.40 μM […]
To test the effect of these compounds on AhR abundance, we established a cellular reporter in the breast cancer cell line MCF7. AhR in this case is fused to GFP bearing an independently translated mCherry on the same transcript to allow correction for general transcriptional interference of treatments (Figure 6d,e). […]

T1 sequence (P35869 11-848): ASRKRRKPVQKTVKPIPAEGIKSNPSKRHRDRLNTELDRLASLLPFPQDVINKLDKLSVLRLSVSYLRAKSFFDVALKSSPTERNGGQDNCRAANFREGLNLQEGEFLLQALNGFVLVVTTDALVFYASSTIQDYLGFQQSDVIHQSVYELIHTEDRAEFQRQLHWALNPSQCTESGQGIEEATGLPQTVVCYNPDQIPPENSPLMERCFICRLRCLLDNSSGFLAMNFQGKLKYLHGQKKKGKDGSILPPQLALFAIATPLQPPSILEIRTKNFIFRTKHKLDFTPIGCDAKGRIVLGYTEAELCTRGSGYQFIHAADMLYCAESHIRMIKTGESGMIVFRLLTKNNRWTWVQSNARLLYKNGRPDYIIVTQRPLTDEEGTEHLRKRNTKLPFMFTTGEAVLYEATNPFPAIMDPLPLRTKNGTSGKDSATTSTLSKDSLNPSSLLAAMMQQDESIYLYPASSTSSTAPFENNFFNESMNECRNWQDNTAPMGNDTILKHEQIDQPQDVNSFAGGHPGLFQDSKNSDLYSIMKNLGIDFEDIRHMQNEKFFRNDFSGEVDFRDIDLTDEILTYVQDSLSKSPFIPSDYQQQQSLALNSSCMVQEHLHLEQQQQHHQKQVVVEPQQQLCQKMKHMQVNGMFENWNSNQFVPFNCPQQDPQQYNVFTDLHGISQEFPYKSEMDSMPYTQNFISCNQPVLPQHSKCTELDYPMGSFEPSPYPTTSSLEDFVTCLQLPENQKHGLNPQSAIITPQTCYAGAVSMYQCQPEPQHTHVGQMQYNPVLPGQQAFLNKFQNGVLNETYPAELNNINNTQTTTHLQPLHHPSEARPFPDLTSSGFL
T1 sequence (P08238 whole entry partner): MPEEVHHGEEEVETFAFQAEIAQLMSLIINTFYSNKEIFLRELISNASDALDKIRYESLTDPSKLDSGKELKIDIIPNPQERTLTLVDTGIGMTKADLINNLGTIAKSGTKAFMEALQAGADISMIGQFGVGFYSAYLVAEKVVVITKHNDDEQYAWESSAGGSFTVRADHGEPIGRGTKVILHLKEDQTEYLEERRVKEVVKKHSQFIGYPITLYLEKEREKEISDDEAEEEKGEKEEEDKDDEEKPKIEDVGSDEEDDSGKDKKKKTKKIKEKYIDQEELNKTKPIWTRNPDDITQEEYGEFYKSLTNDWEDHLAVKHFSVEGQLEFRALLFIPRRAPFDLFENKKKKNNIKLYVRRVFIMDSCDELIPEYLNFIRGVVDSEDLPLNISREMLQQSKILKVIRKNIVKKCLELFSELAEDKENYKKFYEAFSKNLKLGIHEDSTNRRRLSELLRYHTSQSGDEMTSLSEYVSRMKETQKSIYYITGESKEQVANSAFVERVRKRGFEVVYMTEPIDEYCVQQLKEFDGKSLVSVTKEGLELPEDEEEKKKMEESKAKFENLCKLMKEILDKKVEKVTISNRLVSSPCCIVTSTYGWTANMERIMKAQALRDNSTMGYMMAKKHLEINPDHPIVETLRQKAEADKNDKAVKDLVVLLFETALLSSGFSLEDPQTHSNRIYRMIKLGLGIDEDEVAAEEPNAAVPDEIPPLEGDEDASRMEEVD
T1 sequence (O00170 whole entry partner): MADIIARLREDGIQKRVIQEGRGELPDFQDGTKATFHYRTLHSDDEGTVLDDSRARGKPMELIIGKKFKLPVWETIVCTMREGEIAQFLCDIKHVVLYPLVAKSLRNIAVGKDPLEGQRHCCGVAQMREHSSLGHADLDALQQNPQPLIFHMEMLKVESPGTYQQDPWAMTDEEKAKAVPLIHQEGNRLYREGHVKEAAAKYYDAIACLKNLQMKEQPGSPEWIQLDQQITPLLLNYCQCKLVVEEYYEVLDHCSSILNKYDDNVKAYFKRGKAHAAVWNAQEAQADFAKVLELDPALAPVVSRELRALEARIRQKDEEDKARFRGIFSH

SMILES: Cc1[nH]c2ccccc2c1-c1c2[nH]c3ccccc3c2cc2[nH]c3ccccc3c12 [5e]
- AhR degradation in reporter system: pronounced AhR degradation
